Each structure is given as a SMILES string.

The text below walks through data of US9771352B2, “Hydroxyalkyl-substituted phenyltriazole derivatives and uses thereof” (BAYER PHARMA AKTIENGESELLSCHAFT, priority 2014, dated 2017).

The target of one assay is T1, human V1a receptor (Homo sapiens, UniProt P37288).
T1 construct: expressed in transfected cells; host or cells: CHO K1 (ATCC), also stably transfected with modified aequorin
Put plainly: Cellular in vitro assay for determining vasopressin receptor activity, V1a receptor cell line (photoprotein luminescence). As to conditions: CHO cell line transfected with human V1a receptor; [Arg8]-vasopressin at EC50; compounds of the invention (Table 1A); read-out: IC50 hV1a. The assay is classed as cell-based.

Another assay concerns the target T2, human V2 receptor (Homo sapiens, UniProt P30518).
T2 construct: expressed in transfected cells; host or cells: CHO K1 (ATCC) expressing firefly luciferase under a CRE-responsive promoter
The assay can be described thus: Cellular in vitro assay for determining vasopressin receptor activity, V2 receptor cell line (CRE-luciferase). The assay is classed as cell-based. As to conditions: CHO cell line transfected with human V2 receptor; [Arg8]-vasopressin at EC50; compounds of the invention (Table 1A); read-out: IC50 hV2. In outline: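 CHO K1 cells stably expressing human V2 receptor with CRE-driven firefly luciferase, plated the day before in DMEM/F12 with 2% FCS at 37° C. Receptor activation raises cAMP and luciferase expression; after Triton lysis and luciferin addition, luminescence is read and IC50 values derived.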

A further assay deals with conscious rats. The assay can be described thus: Diuresis investigations in conscious rats kept in metabolism cages. The assay is classed as in vivo, Wistar rats. As to conditions: Rattus norvegicus, po, read-out: Urinary volume; for response vs control in vivo at 1 mg/kg: dosage p.o. 1.0 mg/kg (Table 2A); for response vs control in vivo at 0.3 mg/kg: dosage p.o. 0.3 mg/kg (Table 2A); for response vs control in vivo at 3 mg/kg: dosage p.o. 3.0 mg/kg (Table 2A). How it is done:
Wistar rats (220-450 g body weight) are kept with free access to feed (Altromin) and drinking water. During the experiment, the animals are kept with free access to drinking water for 4 to 8 or up to 24 hours individually in metabolism cages suitable for rats of this weight class (Tecniplast Deutschland GmbH, D-82383 HohenpeiBenberg). At the beginning of the experiment, the animals are administered the test substance in a volume of 1 to 3 ml/kg body weight of a suitable solvent by means of gavage into the stomach. Control animals only receive solvent. Controls and substance tests are carried out in parallel on the same day. Control groups and substance-dose groups each consist of 4 to 8 animals. During the experiment, the urine excreted by the animals is collected continuously in a receiver at the base of the cage. The volume of urine per time unit is determined separately for each animal, and the concentration of urinary electrolytes is measured by standard methods of flame photometry. Before the beginning of the experiment, the body weight of the individual animals is determined.

T1 sequence (P37288 whole entry): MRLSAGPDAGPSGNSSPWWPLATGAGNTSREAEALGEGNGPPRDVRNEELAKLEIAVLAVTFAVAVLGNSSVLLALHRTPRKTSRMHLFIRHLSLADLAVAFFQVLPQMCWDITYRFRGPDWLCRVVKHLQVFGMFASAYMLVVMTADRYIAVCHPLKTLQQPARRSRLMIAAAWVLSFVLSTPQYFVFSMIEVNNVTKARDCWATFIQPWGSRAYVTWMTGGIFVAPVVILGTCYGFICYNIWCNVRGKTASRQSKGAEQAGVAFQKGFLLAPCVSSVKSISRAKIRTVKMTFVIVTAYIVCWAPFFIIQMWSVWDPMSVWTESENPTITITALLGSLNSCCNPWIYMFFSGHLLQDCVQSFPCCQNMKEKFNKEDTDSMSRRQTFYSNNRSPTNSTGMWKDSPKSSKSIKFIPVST
T2 sequence (P30518 whole entry): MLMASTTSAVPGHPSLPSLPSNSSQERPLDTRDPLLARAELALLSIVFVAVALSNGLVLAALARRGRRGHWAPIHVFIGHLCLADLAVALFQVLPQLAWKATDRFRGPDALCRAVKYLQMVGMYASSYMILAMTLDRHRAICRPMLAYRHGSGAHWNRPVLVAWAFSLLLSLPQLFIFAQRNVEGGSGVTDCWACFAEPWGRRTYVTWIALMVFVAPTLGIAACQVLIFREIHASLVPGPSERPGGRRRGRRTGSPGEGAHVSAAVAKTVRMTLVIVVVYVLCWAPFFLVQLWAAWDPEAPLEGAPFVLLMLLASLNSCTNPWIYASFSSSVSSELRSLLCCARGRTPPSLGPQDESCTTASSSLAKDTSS

Take `CC(O)c1nc(Cn2nc(-c3ccc(Cl)cc3)n(C[C@H](O)C(F)(F)F)c2=O)nn1-c1cc(F)cc(Cl)c1` (single isomer, unassigned) [Example 14]: the concentration for half-maximal inhibition (IC50) (as a rule, the midpoint of a concentration-inhibition curve) turned out to be 1.3 nM at human V1a receptor and 0.4 nM at human V2 receptor. Besides, the response vs control in vivo at 1 mg/kg in the assay with conscious rats is 753%.
`CC(O)c1nc(Cn2nc(-c3ccc(Cl)cc3)n(C[C@H](O)C(F)(F)F)c2=O)nn1-c1cc(F)cc(Cl)c1` (single isomer, unassigned) [Example 15]: the values for the IC50 on human V1a receptor and on human V2 receptor were 38.4 nM and 4.1 nM, respectively. Moreover, the response vs control in vivo at 0.3 mg/kg in the assay on conscious rats was determined as 412%.
Consider `CC(O)c1nc(Cn2nc(-c3ccc(Cl)cc3)n(C[C@H](O)C(F)(F)F)c2=O)nn1-c1ccccc1` (single isomer, unassigned) [Example 17], for which, at human V1a receptor, the IC50 amounted to 2.7 nM. The IC50 on human V2 receptor was found to be 3.4 nM. Also, in the assay on conscious rats, the response vs control in vivo at 0.3 mg/kg was found to be 404% and the response vs control in vivo at 1 mg/kg was determined as 819%.
Turning to `Cc1cccc(-n2nc(Cn3nc(-c4ccc(Cl)cc4)n(C[C@H](O)C(F)(F)F)c3=O)nc2C(C)O)c1` (single isomer, unassigned) [Example 29], at human V1a receptor, the IC50 came out at 2.9 nM. In addition, the IC50 on human V2 receptor is 0.2 nM. For the same molecule, in the assay on conscious rats, the response vs control in vivo at 0.3 mg/kg turned out to be 404% and the response vs control in vivo at 1 mg/kg is 983%.
As for `Cc1ccccc1-n1nc(Cn2nc(-c3ccc(Cl)cc3)n(C[C@H](O)C(F)(F)F)c2=O)nc1C(C)O` (single isomer, unassigned) [Example 70], the IC50 at human V1a receptor was 0.5 nM. For the same molecule, the IC50 on human V2 receptor stood at 1.1 nM. In the assay on conscious rats, the response vs control in vivo at 0.3 mg/kg came to 139% and the response vs control in vivo at 3 mg/kg was 595%.
On to `CC(O)c1nc(Cn2nc(-c3ccc(Cl)cc3)n(C[C@H](O)C(F)(F)F)c2=O)nn1-c1ccccc1C(F)(F)F` (single isomer, unassigned) [Example 74], for which the values for the IC50 at human V1a receptor and at human V2 receptor were 2.2 nM and 24.7 nM, respectively.
In the case of `O=c1n(Cc2nc(CO)n(-c3cccc(Cl)c3)n2)nc(-c2ccc(Cl)cc2)n1C[C@H](O)C(F)(F)F` [Example 1, 5-(4-Chlorophenyl)-2-{[1-(3-chlorophenyl)-5-(hydroxymethyl)-1H-1,2,4-triazol-3-yl]methyl}-4-[(2S)-3,3,3-trifluoro-2-hydroxypropyl]-2,4-dihydro-3H-1,2,4-triazol-3-one], the IC50 at human V1a receptor amounted to 6 nM; on human V2 receptor, 2.5 nM. The response vs control in vivo at 0.3 mg/kg in the assay on conscious rats is 194%. Also, the response vs control in vivo at 3 mg/kg in the assay on conscious rats worked out at 588%.
As for `O=c1n(Cc2nc(CO)n(-c3cccc(F)c3)n2)nc(-c2ccc(Cl)cc2)n1C[C@H](O)C(F)(F)F` [Example 2, 5-(4-Chlorophenyl)-2-{[1-(3-fluorophenyl)-5-(hydroxymethyl)-1H-1,2,4-triazol-3-yl]methyl}-4-[(2S)-3,3,3-trifluoro-2-hydroxypropyl]-2,4-dihydro-3H-1,2,4-triazol-3-one], the IC50 at human V1a receptor was determined as 5 nM. For the same molecule, at human V2 receptor, the IC50 worked out at 8.7 nM. In the assay with conscious rats, the response vs control in vivo at 0.3 mg/kg came to 194% and the response vs control in vivo at 3 mg/kg came to 588%.
Turning to `COc1ccccc1-n1nc(Cn2nc(-c3ccc(Cl)cc3)n(C[C@H](O)C(F)(F)F)c2=O)nc1CO` [Example 3, 5-(4-Chlorophenyl)-2-{[5-(hydroxymethyl)-1-(2-methoxyphenyl)-1H-1,2,4-triazol-3-yl]methyl}-4-[(2S)-3,3,3-trifluoro-2-hydroxypropyl]-2,4-dihydro-3H-1,2,4-triazol-3-one], at human V1a receptor, the IC50 came out at 1 nM. The IC50 at human V2 receptor was determined as 5.6 nM. Also, in the assay with conscious rats, the response vs control in vivo at 0.3 mg/kg stood at 89% and the response vs control in vivo at 3 mg/kg was determined as 450%.
Take `O=c1n(Cc2nc(CO)n(-c3ccccc3Cl)n2)nc(-c2ccc(Cl)cc2)n1C[C@H](O)C(F)(F)F` [Example 4, 5-(4-Chlorophenyl)-2-{[1-(2-chlorophenyl)-5-(hydroxymethyl)-1H-1,2,4-triazol-3-yl]methyl}-4-[(2S)-3,3,3-trifluoro-2-hydroxypropyl]-2,4-dihydro-3H-1,2,4-triazol-3-one]: at human V1a receptor, the IC50 worked out at 0.4 nM. The IC50 at human V2 receptor stood at 5.3 nM. Moreover, in the assay with conscious rats, the response vs control in vivo at 0.3 mg/kg is 91% and the response vs control in vivo at 1 mg/kg was 190%.
On to `Cc1ccccc1-n1nc(Cn2nc(-c3ccc(Cl)cc3)n(C[C@H](O)C(F)(F)F)c2=O)nc1CO` [Example 5, 5-(4-Chlorophenyl)-2-{[5-(hydroxymethyl)-1-(2-methylphenyl)-1H-1,2,4-triazol-3-yl]methyl}-4-[(2S)-3,3,3-trifluoro-2-hydroxypropyl]-2,4-dihydro-3H-1,2,4-triazol-3-one], for which the IC50 on human V1a receptor was found to be 0.4 nM; on human V2 receptor it was 1.8 nM. In addition, the response vs control in vivo at 0.3 mg/kg in the assay on conscious rats was determined as 166%. Further, in the assay with conscious rats, the response vs control in vivo at 1 mg/kg was determined as 438%.
As for `O=c1n(Cc2nc(CO)n(-c3cc(F)cc(F)c3)n2)nc(-c2ccc(Cl)cc2)n1C[C@H](O)C(F)(F)F` [Example 7, 5-(4-Chlorophenyl)-2-{[1-(3,5-difluorophenyl)-5-(hydroxymethyl)-1H-1,2,4-triazol-3-yl]methyl}-4-[(2S)-3,3,3-trifluoro-2-hydroxypropyl]-2,4-dihydro-3H-1,2,4-triazol-3-one], the IC50 worked out at 7.6 nM on human V1a receptor and 2.6 nM at human V2 receptor.
`O=c1n(Cc2nc(CO)n(-c3ccccc3C(F)(F)F)n2)nc(-c2ccc(Cl)cc2)n1C[C@H](O)C(F)(F)F` [Example 8, 5-(4-Chlorophenyl)-2-({5-(hydroxymethyl)-1-[2-(trifluoromethyl)phenyl]-1H-1,2,4-triazol-3-yl}-methyl)-4-[(2S)-3,3,3-trifluoro-2-hydroxypropyl]-2,4-dihydro-3H-1,2,4-triazol-3-one]: the IC50 on human V1a receptor was 1.2 nM; at human V2 receptor it was 10.7 nM.
Turning to `O=c1n(Cc2nc(CO)n(-c3cc(F)ccc3Cl)n2)nc(-c2ccc(Cl)cc2)n1C[C@H](O)C(F)(F)F` [Example 9, 2-{[1-(2-Chloro-5-fluorophenyl)-5-(hydroxymethyl)-1H-1,2,4-triazol-3-yl]methyl}-5-(4-chlorophenyl)-4-[(2S)-3,3,3-trifluoro-2-hydroxypropyl]-2,4-dihydro-3H-1,2,4-triazol-3-one], the IC50 on human V1a receptor came out at 0.4 nM; at human V2 receptor, 2.3 nM.
Consider `C[C@@H](O)c1nc(Cn2nc(-c3ccc(Cl)cc3)n(C[C@H](O)C(F)(F)F)c2=O)nn1-c1cccc(F)c1` [Example 77, 5-(4-Chlorophenyl)-2-({1-(3-fluorophenyl)-5-[(1R)-1-hydroxyethyl]-1H-1,2,4-triazol-3-yl}-methyl)-4-[(2S)-3,3,3-trifluoro-2-hydroxypropyl]-2,4-dihydro-3H-1,2,4-triazol-3-one], for which the IC50 at human V1a receptor came to 12.5 nM; at human V2 receptor, 13.5 nM.
On the same counts, the results for `C[C@@H](O)c1nc(Cn2nc(-c3ccc(Cl)cc3)n(C[C@H](O)C(F)(F)F)c2=O)nn1-c1cccc(Cl)c1` [Example 80, 5-(4-Chlorophenyl)-2-({1-(3-chlorophenyl)-5-[(1R)-1-hydroxyethyl]-1H-1,2,4-triazol-3-yl}-methyl)-4-[(2S)-3,3,3-trifluoro-2-hydroxypropyl]-2,4-dihydro-3H-1,2,4-triazol-3-one] are 46.3 nM and 5.1 nM.
